Among the data in article PMC3895372 (Nature communications, 2014) are Ki values, retold here.

In one test the target is T1, µ-calpain (Sus scrofa, UniProt P35750).
T1 sequence (P35750 1-714): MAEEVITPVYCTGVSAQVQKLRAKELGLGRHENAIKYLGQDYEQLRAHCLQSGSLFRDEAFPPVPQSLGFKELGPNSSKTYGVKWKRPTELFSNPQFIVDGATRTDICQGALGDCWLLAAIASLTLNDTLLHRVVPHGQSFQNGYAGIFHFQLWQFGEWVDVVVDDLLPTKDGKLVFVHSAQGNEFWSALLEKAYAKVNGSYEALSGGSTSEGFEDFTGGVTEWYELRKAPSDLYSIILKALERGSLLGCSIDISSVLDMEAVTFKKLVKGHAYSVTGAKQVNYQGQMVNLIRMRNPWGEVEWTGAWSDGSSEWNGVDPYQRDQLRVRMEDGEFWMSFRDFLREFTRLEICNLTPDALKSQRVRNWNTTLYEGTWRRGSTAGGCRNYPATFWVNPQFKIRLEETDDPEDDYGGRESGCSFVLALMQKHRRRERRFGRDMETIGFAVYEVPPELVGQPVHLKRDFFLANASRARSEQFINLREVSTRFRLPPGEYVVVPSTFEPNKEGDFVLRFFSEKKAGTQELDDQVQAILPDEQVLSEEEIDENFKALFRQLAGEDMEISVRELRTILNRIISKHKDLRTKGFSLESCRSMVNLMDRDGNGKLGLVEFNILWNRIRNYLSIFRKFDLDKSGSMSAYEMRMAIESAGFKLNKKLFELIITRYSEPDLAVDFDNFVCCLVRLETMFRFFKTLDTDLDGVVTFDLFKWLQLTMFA
T1 sequence (P04574 1-266 partner): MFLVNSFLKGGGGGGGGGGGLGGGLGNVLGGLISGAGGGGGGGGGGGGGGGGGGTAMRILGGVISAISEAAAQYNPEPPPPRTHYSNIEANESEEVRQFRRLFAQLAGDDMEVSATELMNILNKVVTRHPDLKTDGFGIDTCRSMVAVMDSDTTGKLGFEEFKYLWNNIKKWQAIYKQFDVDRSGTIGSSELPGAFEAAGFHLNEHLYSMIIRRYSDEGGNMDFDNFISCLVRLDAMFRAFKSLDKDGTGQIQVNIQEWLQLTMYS
In words: fluorogenic Suc-Leu-Tyr-AMC hydrolysis assay with purified enzyme. It is filed as biochemical.

In another test the target is T2, m-calpain (Rattus norvegicus, UniProt Q07009).
T2 sequence (Q07009 20-700): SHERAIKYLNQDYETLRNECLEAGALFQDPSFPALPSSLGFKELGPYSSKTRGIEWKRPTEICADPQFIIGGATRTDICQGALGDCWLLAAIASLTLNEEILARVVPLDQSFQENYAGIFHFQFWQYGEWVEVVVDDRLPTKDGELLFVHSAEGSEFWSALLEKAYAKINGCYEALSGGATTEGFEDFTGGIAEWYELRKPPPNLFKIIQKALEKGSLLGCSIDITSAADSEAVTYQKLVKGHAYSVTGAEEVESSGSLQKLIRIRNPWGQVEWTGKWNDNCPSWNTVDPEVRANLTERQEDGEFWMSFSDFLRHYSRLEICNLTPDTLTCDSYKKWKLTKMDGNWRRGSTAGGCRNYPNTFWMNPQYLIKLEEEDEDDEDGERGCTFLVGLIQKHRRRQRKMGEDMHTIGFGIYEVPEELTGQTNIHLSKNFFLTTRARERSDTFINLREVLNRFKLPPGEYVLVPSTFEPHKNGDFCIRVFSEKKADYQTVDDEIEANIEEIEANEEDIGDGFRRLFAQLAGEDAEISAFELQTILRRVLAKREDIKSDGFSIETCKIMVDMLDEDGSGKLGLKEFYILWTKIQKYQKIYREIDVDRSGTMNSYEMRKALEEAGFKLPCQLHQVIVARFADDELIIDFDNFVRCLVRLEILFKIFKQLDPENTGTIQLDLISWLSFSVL
T2 sequence (Q64537 1-270 partner): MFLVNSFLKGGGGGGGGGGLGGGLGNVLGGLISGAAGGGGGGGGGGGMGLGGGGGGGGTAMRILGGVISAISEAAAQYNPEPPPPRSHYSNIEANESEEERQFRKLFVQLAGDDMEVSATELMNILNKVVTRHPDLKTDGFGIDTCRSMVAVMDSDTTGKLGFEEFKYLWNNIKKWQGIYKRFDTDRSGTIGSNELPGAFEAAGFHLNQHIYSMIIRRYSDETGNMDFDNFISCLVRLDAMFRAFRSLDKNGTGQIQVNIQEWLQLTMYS
The description is as above. It counts as biochemical.

For the compound `CC[C@H](NC(=O)[C@H](CC(C)C)NC(=O)OCc1ccccc1)C(=O)C(=O)NCc1cc(OC)cc(OC)c1` [mCalp-I], the inhibitory constant (Ki) at µ-calpain stood at 940 nM; at m-calpain, 25 nM.
